The subject of experiment [1] is carrageenan-induced hyperalgesic foot withdrawal. Briefly: Rat carrageenan-induced analgesia test. Format: in vivo. Particulars: oral, 3 mpk (footnote *); 3 h after carrageenan. As for the experimental part: The analgesia test using rat carrageenan was performed with materials, reagents and procedures essentially as described by Hargreaves, et al., (Pain, 32, 77 (1988)). Male Sprague-Dawley rats were treated as previously described for the Carrageenan Foot Pad Edema test. Three hours after the injection of the carrageenan, the rats were placed in a special plexiglass container with a transparent floor having a high intensity lamp as a radiant heat source, positionable under the floor. After an initial twenty minute period, thermal stimulation was begun on either the injected foot or on the contralateral uninjected foot. A photoelectric cell turned off the lamp and timer when light was interrupted by paw withdrawal. The time until the rat withdraws its foot was then measured. The withdrawal latency in seconds was determined for the control and drug-treated groups, and percent inhibition of the hyperalgesic foot withdrawal determined.

The next experiment concerns the target T1, Murine COX II (Mus musculus, UniProt Q05769).
T1 construct: coding region of either human or murine COX-I or human or murine COX-II was cloned; made in house; host or cells: SF9 insect cells (baculovirus, pVL1393)
T1 sequence (Q05769 18-604): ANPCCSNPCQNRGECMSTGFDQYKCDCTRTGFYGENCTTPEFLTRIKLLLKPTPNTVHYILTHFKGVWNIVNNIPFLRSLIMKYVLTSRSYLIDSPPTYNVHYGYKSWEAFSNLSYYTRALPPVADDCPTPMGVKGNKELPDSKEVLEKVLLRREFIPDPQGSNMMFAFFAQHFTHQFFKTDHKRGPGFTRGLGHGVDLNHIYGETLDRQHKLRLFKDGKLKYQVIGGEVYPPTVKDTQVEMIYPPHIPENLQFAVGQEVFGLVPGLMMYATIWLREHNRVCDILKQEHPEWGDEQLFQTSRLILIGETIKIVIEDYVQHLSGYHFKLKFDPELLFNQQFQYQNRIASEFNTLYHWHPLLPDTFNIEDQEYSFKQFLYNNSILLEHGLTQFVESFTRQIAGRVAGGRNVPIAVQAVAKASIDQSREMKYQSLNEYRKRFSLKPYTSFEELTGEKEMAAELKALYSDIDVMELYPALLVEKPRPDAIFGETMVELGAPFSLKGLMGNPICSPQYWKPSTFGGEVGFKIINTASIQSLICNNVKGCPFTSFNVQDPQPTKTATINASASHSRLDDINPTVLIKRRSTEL
Briefly: COX II activity in vitro (PGE2 ELISA, recombinant enzyme). It counts as biochemical. Particulars: arachidonic acid 10 μM, read-out: Murine COX II ID50. On the procedure: A 2.0 kb fragment containing the coding region of either human or murine COX-I or human or murine COX-II was cloned into a BamH1 site of the baculovirus transfer vector pVL1393 to generate the baculovirus transfer vector. Recombinant baculoviruses were isolated by transfecting 4 μg of baculovirus transfer vector DNA into SF9 cells (2×10e8) along with 200 ng of linearized baculovirus plasmid DNA by the calcium phosphate method. […] The homogenate was centrifuged at 10,000×G for 30 minutes, and the resultant supernatant was stored at −80° C. before being assayed for COX activity.
COX activity was assayed as PGE2 formed/μg protein/time using an ELISA to detect the prostaglandin released. CHAPS-solubilized insect cell membranes containing the appropriate COX enzyme were incubated in a potassium phosphate buffer (50 mM, pH 8.0) containing epinephrine, phenol, and heme with the addition of arachidonic acid (10 μM). […] The PGE2 formed was measured by standard ELISA technology (Cayman Chemical).
On the technique in general: ELISA stands for enzyme-linked immunosorbent assay.

Marks after values point to notes of the source that are not given here.

For the compound `CS(=O)(=O)c1ccc(-c2csc(Br)c2-c2ccc(F)cc2)cc1` [Example 2, 4-(4-Methylsulfonylphenyl)-3-(4-fluorophenyl)-2-bromothiophene], the “ANALGESIA % Inhibition @ 3 mpk” value in experiment [1] is given as 0* %.
Take `Cc1cc(F)ccc1-c1cscc1-c1ccc(S(C)(=O)=O)cc1` [Example 15, 3-(4-Methylsulfonylphenyl)-4-(2-methyl-4-fluorophenyl) thiophene]: at Murine COX II, the IC50 was less than 100 nM.
